Data from US20200232989A1 (UNIVERSITE D'AIX-MARSEILLE, priority 2017, published 2020).

What was measured:
HUVEC = test: Cell viability/metabolism (XTT) in HUVEC; assay type: cell-based; conditions: 48 h
Description: FIG. 7. Regulation of expression of CD146 and angiomotin (Amot) is differently regulated in endothelial cells. […] CD146 (A) and angiomotin (B) were analyzed by qPCR. […] The cell metabolism was measured by XTT assay. […] The cell metabolism was measured by XTT assay. Results are represented as the mean of three independent experiments±SEM. * p<0.05, ** p<0.01, *** p<0.001.
(§1) Fifty microliters of sodium 3′-[1-phenylaminocarbonyl)-3,4-tetrazolium]-bis(4-methoxy-6-nitro) benzene sulfonic acid hydrate (XTT) reagent was added to each well. The assay is based on the cleavage of the yellow tetrazolium salt XTT to form an orange formazan dye by metabolically active cells. The absorbance of the formazan product, reflecting cell viability, was measured at 490 nm. Each assay was performed in quadruplicate.

[1] = Survival (PFS, OS) of metastatic ccRCC patients in the prospective cohort (SUVEGIL and TORAVA trials), split by sCD146 variation; assay type: in vivo, human
Description: Eligible patients for SUVEGIL and TORAVA trials were at least 18 years of age and had metastatic clear cell renal cell carcinoma (ccRCC) histologically confirmed, with the presence of measurable disease according to Response Evaluation Criteria in Solid Tumors (RECIST) v1.1. […] Patients were ineligible if they had symptomatic or uncontrolled brain metastases, an estimated lifetime less than 3 months, uncontrolled hypertension or clinically significant cardiovascular events (heart failure, prolongation of the QTinterval), history of other primary cancer. All patients gave written informed consent.
The prospective cohort includes patients from the SUVEGIL and TORAVA trials.
The SUVEGIL trial (clinicaltrial.gov, NCT00943839) was a multicenter prospective single-arm study. […] Courses repeat every 6 weeks in the absence of disease progression or unacceptable toxicity.
The TORAVA trial (clinicaltrial.gov, NCT00619268) was a randomized prospective study. Patient characteristics and results have been previously described (Negrier et al, 2011).
The % variation of plasmatic level of sCD146 was correlated with OS and PFS, defined respectively as the time from inclusion in the trial to death from all causes (for OS) and to progression, treatment cessation, or death (for PFS), censored at last follow-up for those still alive or who have not progressed.
(§2) PFS was defined as the time between blood sample collection and progression, or death from any cause, censoring those alive and progression free at last follow-up. OS was defined as the time from blood sample collection to the date of death from any cause, censoring those alive at last follow-up.
(§3) The % variation of sCD146 between diagnosis and after 1 cycle of suntinib cut-off point was determined at 120%. Kaplan Meier method was used to produce survival curves and analyses of censored data were performed using Cox models.

[2] = PFS of patients in the retrospective validation cohort, split by sCD146 variation; assay type: in vivo, human; conditions: retrospective/confirmation cohort
Description: 13 patients from the HEPG (France) (50 mg/day, once daily for four weeks) were analyzed retrospectively.
as §2, §3

sCD146 = test: ELISA of sCD146 protein in 786/786R cell supernatants; assay type: cell-based; conditions: 786R cells; 10 μg/ml, 48 hr
Description: D, sCD146 protein in cell supernatants was evaluated by ELISA. […] Results are represented as the mean of three independent experiments±SEM.* p<0.05, ** p<0.01, *** p<0.001.
A, 786 and 786R cells were treated with 10 μg/ml BVZ for 48 hr. sCD146 protein in cell supernatants were evaluated by ELISA. […] Results are represented as the mean of three independent experiments±SEM. * p<0.05, ** p<0.01, *** p<0.001.

786 cells = test: Cell viability/metabolism (XTT) in 786 cells; assay type: cell-based; conditions: sCD146 50 and 100 ng/ml, 48 h
Description: FIG. 4. […] The mRNA levels of CD146 total (A), long (B) and short forms (C) and angiomotin (E) were evaluated by qPCR. D, sCD146 protein in cell supernatants was evaluated by ELISA. […] The cell metabolism was measured by XTT assay. Results are represented as the mean of three independent experiments±SEM.* p<0.05, ** p<0.01, *** p<0.001.
as §1

[3] = patients with sCD146 plasmatic level increase ≥120% between diagnosis and first cycle of treatment
[4] = patients with sCD146 variation <120% between diagnosis and first cycle of treatment

Row | Compound | decrease in cell proliferation (HUVEC; HUVEC, 1 or 2 μM) | median PFS [1, 3] [months] | median PFS [1, 4] [months] | median OS ([1]; patients with sCD146 ≥120%) [months] | PFS ([2]; patients with modulation of sCD146 <120%) [months] | PFS ([2]; patients with sCD146 ≥120%) [months] | median OS ([1]; patients with sCD146 <120%) [months] | sCD146 secretion (sCD146) | effect on sunitinib-dependent decrease of cell metabolism (786 cells; 786 cells treated with 2.5 or 5 μM sunitinib) | cell metabolism (786 cells; 786 cells) | protection from sunitinib (HUVEC; HUVEC treated with sunitinib, recombinant sCD146 50 or 100 ng/ml) | proliferation of HUVEC (HUVEC; HUVEC, recombinant sCD146 50 or 100 ng/ml)
1 | CCN(CC)CCNC(=O)c1c(C)[nH]c(/C=C2\C(=O)Nc3ccc(F)cc32)c1C [sunitinib] | about 50% | 5.7 | 20.5 | 11 | 24.8 | 2.3 | – | – | – | – | – | –
2 | bevacizumab | – | 10.5 | 10.7 | 24.1 | – | – | 24.4 | no increase in sCD146 secretion | – | – | – | –
3 | sCD146: soluble form of CD146 generated by shedding of the membrane form; used as recombinant protein in cell assays | – | – | – | – | – | – | – | – | prevents sunitinib-dependent decreased cell metabolism | increased cell metabolism at both concentrations | did not protect HUVEC from sunitinib | stimulated the proliferation of HUVEC
